Test results from PubChem BioAssay AID651797 (The Scripps Research Institute Molecular Screening Center, 2012).
The source made the active and inactive calls. How the calls were made is not given here.

Target: Nuclear receptor coactivator 3 (Homo sapiens) (UniProt Q9Y6Q9)
Assay: SRC3 (NCOA3) coactivator inhibitors, late-stage follow-up, selectivity assay for SRC1 inhibitor project, cell-based, luminescence reporter (AID 651797)
Settings: human cells, dose response

Chain of Nuclear receptor coactivator 3 (Homo sapiens) (Q9Y6Q9 whole entry, looked up): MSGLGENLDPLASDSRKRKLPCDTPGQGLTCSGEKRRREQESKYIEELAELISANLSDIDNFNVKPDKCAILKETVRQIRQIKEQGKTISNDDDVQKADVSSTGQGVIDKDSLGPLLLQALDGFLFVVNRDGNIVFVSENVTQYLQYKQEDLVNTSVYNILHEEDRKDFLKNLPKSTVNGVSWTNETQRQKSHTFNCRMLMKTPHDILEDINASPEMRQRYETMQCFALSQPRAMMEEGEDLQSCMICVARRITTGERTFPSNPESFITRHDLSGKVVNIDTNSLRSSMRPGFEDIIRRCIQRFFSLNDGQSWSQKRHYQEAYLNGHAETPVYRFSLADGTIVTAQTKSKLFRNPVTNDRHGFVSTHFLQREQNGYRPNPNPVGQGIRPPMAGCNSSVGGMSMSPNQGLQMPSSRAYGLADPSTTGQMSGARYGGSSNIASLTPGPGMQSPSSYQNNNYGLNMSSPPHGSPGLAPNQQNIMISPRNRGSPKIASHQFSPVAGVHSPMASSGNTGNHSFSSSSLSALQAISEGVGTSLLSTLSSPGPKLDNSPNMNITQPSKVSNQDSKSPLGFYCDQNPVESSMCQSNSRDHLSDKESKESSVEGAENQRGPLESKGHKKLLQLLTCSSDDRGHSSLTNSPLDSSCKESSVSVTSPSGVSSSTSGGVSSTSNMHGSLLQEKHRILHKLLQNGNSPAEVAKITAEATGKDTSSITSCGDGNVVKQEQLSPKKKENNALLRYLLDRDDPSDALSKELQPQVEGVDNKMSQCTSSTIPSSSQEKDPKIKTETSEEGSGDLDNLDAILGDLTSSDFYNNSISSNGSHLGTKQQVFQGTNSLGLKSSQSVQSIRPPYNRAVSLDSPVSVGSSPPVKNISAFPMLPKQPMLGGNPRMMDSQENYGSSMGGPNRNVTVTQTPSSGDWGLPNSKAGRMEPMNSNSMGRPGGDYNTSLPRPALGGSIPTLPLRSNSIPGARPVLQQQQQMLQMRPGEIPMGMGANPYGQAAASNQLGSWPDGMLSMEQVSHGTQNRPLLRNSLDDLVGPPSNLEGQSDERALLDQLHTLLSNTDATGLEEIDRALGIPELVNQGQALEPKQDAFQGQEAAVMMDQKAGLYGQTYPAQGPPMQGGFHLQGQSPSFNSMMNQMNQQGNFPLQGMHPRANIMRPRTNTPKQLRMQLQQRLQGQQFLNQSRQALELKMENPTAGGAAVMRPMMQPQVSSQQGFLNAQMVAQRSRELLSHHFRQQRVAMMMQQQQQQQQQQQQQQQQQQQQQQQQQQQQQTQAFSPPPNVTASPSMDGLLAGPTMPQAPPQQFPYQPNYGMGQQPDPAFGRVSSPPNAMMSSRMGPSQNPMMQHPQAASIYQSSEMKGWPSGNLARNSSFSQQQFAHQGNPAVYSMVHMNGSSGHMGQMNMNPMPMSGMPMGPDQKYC

Structure (SMILES)	IC50
COc1ccc(Nc2ncnc3ccc(Br)cc23)c(OC)c1	inactive
COc1cc([C@@H]2c3cc4c(cc3C(OC3OC5COC(C)OC5C(O)C3O)C3COC(=O)[C@@H]32)OCO4)cc(OC)c1O (stereo partly drawn)	0.69 µM
COc1ccc(NC(=O)CN(C)C(=O)C2(c3ccccc3)CCCC2)cc1	8.22 µM
